Patent US4531001A, “2-β-D-ribofuranosylselenazole-4-carboxamide compounds” (priority 1983, dated 1985)
≈ marks a conversion by molar mass, not a printed value. Where “and” joins values, the source holds several entries; their conditions need not be identical. Identical values can stand only once. Entries after “also recorded” stand apart in the source; their conditions may differ. Like-named read-outs stand apart in the source and are kept apart here.

How the values were obtained:
Lewis lung carcinoma = assay: Antitumor activity against Lewis lung carcinoma, Example 12 (Table 1); type: in vivo, B6 D2 F1 male mice; details: for Treated Group Survival Time: median, control 19.0, 60-day test
Description: As illustrative examples of the antitumor use of COMPOUNDS 1 and 2, Examples 12 through 14, below, are given. […] The tests utilized in these illustrative examples were conducted by the Developmental Therapeutics Program, Division of Cancer Treatment, National Cancer Institute. The tests were supervised by this agency utilizing their standard protocols and procedures. All tests conformed to these protocols and all tests were evaluated under the criteria defined by these protocols. The following representative examples illustrate confirmed activity of the illustrative compounds of the invention against screening tumor systems of the National Cancer Institute.
For purposes of the following examples, the abbreviation IP stands for intraperitoneal and IV stands for intravenous. The mean and median survival times are calculated in instruction 14 (revised 6/78) of the Screening Data Summary, Developmental Therapeutics Program, Division of Cancer Treatment, National Cancer Institute. The contents of this Screening Data Summary including appropriate revisions are herein incorporated by reference.
In the illustrated examples below, the vehicle used as carrier for the drug was injected (minus any drug therein) into the control animals at the same level of use of the vehicle in the drug treated animals in order to eliminate any vehicle effect of the tests.
For example 12, B6 D2 F1 male mice were used and challenged with Lewis lung carcinoma. The median survival time of the test animals was compared to that of appropriate control animals.
In Example 12, forty control animals and ten test animals were used, each at dose levels indicated below in Table 1. For both the control group and the drug treated group, tumors were induced by IV injection on day zero followed by initiation of drug treatment on day one. For Example 12 water was used as the drug vehicle.
In both the control group and the drug treated group in Example 12, the animals were inoculated on day zero with a homogenate of 10^6 seed cells of Lewis lung carcinoma. For Example 12, drug treatment was started on day one and COMPOUND 1 given once daily for nine days. Day five was utilized as the cut-off date for deaths attributable to toxicity of the drug. […] Efficacy of treatment was determined by comparing median survival time of the control animals and is expressed as percentage increase of treated animals/control animals (T/C).
The test period was for sixty days and at the end of the sixty day period all animals surviving in the test groups were evaluated as either cured, no-takes, or tumor survivors.
In this example, the drug tested animals were injected IP with the dose level noted in Table I below. Ten animals were treated at each dose level. No control animals survived beyond day 23 with a median death rate of day 19.0.

Ad-2 = assay: Antiviral activity (virus rating method); type: cell-based
Description: (§1) Microbiol. 22, 797 (1971). A virus rating that is greater than 1.0 indicates definite antiviral activity. […] The results reported below were obtained by testing on Microtest II (Falcon Plastics) plastic panels with a monolayer of Vero or HeLa cells.

Cox B1 = assay: Antiviral activity (virus rating method); type: cell-based; details: for Virus Rating: >1.0 definite, 0.5-0.9 moderate, <0.5 slight or no activity; for EC50: read-out: ED50 (the source's name)
Description: as §1

Cox B4 = assay: Antiviral activity (virus rating method); type: cell-based; details: for Virus Rating: >1.0 definite, 0.5-0.9 moderate, <0.5 slight or no activity
Description: as §1

HSV-1 = assay: Antiviral activity (virus rating method); type: cell-based; details: for Virus Rating: >1.0 definite, 0.5-0.9 moderate, <0.5 slight or no activity; for EC50: read-out: ED50 (the source's name)
Description: as §1

HSV-2 = assay: Antiviral activity (virus rating method); type: cell-based; details: for Virus Rating: >1.0 definite, 0.5-0.9 moderate, <0.5 slight or no activity; for EC50: read-out: ED50 (the source's name)
Description: as §1

Measles = assay: Antiviral activity (virus rating method); type: cell-based; details: for Virus Rating: >1.0 definite, 0.5-0.9 moderate, <0.5 slight or no activity; for EC50: Measles morbillivirus, read-out: ED50 (the source's name)
Description: as §1

Mumps = assay: Antiviral activity (virus rating method); type: cell-based; details: for Virus Rating: >1.0 definite, 0.5-0.9 moderate, <0.5 slight or no activity; for EC50: read-out: ED50 (the source's name)
Description: as §1

Para 3 = assay: Antiviral activity (virus rating method); type: cell-based; details: for Virus Rating: >1.0 definite, 0.5-0.9 moderate, <0.5 slight or no activity; for EC50: read-out: ED50 (the source's name)
Description: as §1

Reo 3 = assay: Antiviral activity (virus rating method); type: cell-based; details: for Virus Rating: >1.0 definite, 0.5-0.9 moderate, <0.5 slight or no activity; for EC50: read-out: ED50 (the source's name)
Description: as §1

VV = assay: Antiviral activity (virus rating method); type: cell-based; details: for Virus Rating: >1.0 definite, 0.5-0.9 moderate, <0.5 slight or no activity; for EC50: read-out: ED50 (the source's name)
Description: as §1

VSV = assay: microbe, parasite or virus in culture; type: cell-based; details: for Virus Rating: >1.0 definite, 0.5-0.9 moderate, <0.5 slight or no activity; for EC50: Vesicular stomatitis virus, read-out: ED50
Vero cells = assay: Toxicity to Vero cells; details: 1000 ug/ml (highest concentration tested)
Hela cells = assay: Toxicity to Hela cells; details: 1000 ug/ml (highest concentration tested)
MRC-5 cells = assay: Toxicity to MRC-5 cells; details: 1000 ug/ml (highest concentration tested)
cell culture = assay: Cytotoxicity in cell culture
[1] = 3 mg/kg IP once daily for nine days
[2] = 6 mg/kg IP once daily for nine days
[3] = 9 mg/kg IP once daily for nine days
[4] = 13 mg/kg IP once daily for nine days
[5] = 20 mg/kg IP once daily for nine days
[6] = 33 mg/kg IP once daily for nine days
[7] = 50 mg/kg IP once daily for nine days
[8] = 75 mg/kg IP once daily for nine days
[9] = HeLa, read-out: ED50 (the source's name)

Compound: NC(=O)c1c[se]c([C@@H]2O[C@H](CO)[C@@H](O)[C@H]2O)n1 [COMPOUND 1, 2-β-D-ribofuranosylselenazole-4-carboxamide]
- Cures (Lewis lung carcinoma; [1]): One and 1/10
- Percent Treated Animal/Control Animal (T/C) (Lewis lung carcinoma; [1]): 152%
- Treated Group Survival Time (Lewis lung carcinoma; [1]): 28.9
- Cures (Lewis lung carcinoma; [2]): 1/10
- Treated Group Survival Time (Lewis lung carcinoma; [2]): 12.0
- Cures (Lewis lung carcinoma; [3]): 3/10
- Treated Group Survival Time (Lewis lung carcinoma; [3]): 10.4
- Cures (Lewis lung carcinoma; [4]): 5 out of 10 and 5/10
- Percent Treated Animal/Control Animal (T/C) (Lewis lung carcinoma; [4]): 315%
- Treated Group Survival Time (Lewis lung carcinoma; [4]): 60.0
- Cures (Lewis lung carcinoma; [5]): 2/10
- Treated Group Survival Time (Lewis lung carcinoma; [5]): 16.0
- Cures (Lewis lung carcinoma; [6]): 3/10
- Percent Treated Animal/Control Animal (T/C) (Lewis lung carcinoma; [6]): 94%
- Treated Group Survival Time (Lewis lung carcinoma; [6]): 18.0
- Cures (Lewis lung carcinoma; [7]): 1/10
- Percent Treated Animal/Control Animal (T/C) (Lewis lung carcinoma; [7]): 94%
- Treated Group Survival Time (Lewis lung carcinoma; [7]): 18.0
- Cures (Lewis lung carcinoma; [8]): 7 out of 10 and 7/10
- Percent Treated Animal/Control Animal (T/C) (Lewis lung carcinoma; [8]): 315%
- Treated Group Survival Time (Lewis lung carcinoma; [8]): 60.0
- survival of treated animals in words (Lewis lung carcinoma; 75 and 13 mg/kg IP): all of the treated animals survived
- antitumor activity in words (Lewis lung carcinoma; Lewis lung carcinoma, mice): active against Lewis lung carcinoma; also recorded: outstanding activity against Lewis lung carcinoma
- mortality attributable to drug toxicity (Lewis lung carcinoma; cut-off day five, 3-75 mg/kg IP once daily): no mortality attributable to drug toxicity
- DN2 criteria of NCI (Lewis lung carcinoma; mouse, in vivo): successfully passed the DN (decision network) 2 criteria; also recorded: DN2 criteria of NCI were passed
- antiviral activity in words (Ad-2; HeLa cells, Adenoviridae (Adeno-2)): Excellent antiviral activity
- Virus Rating (Ad-2; HeLa, >1.0 definite, 0.5-0.9 moderate, <0.5 slight or no activity): 1.9
- EC50 (Ad-2; [9]): 9 mg/L (≈ 29.3 µM)
- antiviral activity in words (Cox B1; HeLa cells, Picornaviridae (Cox B1)): Excellent antiviral activity
- Virus Rating (Cox B1; HeLa): 1.8
- EC50 (Cox B1; HeLa): 10 mg/L (≈ 32.6 µM)
- Virus Rating (Cox B1; Vero): 1.7
- EC50 (Cox B1; Vero): 15 mg/L (≈ 48.8 µM)
- antiviral activity in words (Cox B4; HeLa cells, Picornaviridae (Cox B4)): Excellent antiviral activity
- Virus Rating (Cox B4; HeLa): 2.3
- EC50 (Cox B4; [9]): 6 mg/L (≈ 19.5 µM)
- EC50 (Cox B4; Vero, read-out: ED50): 1000 mg/L (≈ 3260 µM)
- Virus Rating (Cox B4; Vero): 0.0
- type of antiviral activity (HSV-1; HSV-1, depending upon cell line): virusstatic
- Virus Rating (HSV-1; HeLa): 1.4
- EC50 (HSV-1; Human alphaherpesvirus 1, HeLa): 2 mg/L (≈ 6.51 µM)
- EC50 (HSV-1; Human alphaherpesvirus 1, Vero): 30 mg/L (≈ 97.7 µM)
- Virus Rating (HSV-1; Vero): 1.2
- Virus Rating (HSV-2; HeLa): 1.5
- EC50 (HSV-2; Human alphaherpesvirus 2, HeLa): 4 mg/L (≈ 13 µM)
- EC50 (HSV-2; Human alphaherpesvirus 2, Vero): 10 mg/L (≈ 32.6 µM)
- Virus Rating (HSV-2; Vero): 1.5
- Virus Rating (Measles; HeLa): 1.8
- EC50 (Measles; HeLa): 2 mg/L (≈ 6.51 µM)
- EC50 (Measles; Vero): 1 mg/L (≈ 3.26 µM)
- Virus Rating (Measles; Vero): 2.0
- Virus Rating (Mumps; HeLa): 1.0
- EC50 (Mumps; HeLa): 1 mg/L (≈ 3.26 µM)
- Virus Rating (Mumps; Vero): 1.7
- EC50 (Mumps; Vero): 5 mg/L (≈ 16.3 µM)
- Virus Rating (Para 3; HeLa): 2.2
- EC50 (Para 3; HeLa): 1 mg/L (≈ 3.26 µM)
- type of antiviral activity (Para 3; Para-3, depending upon cell line): virusstatic
- Virus Rating (Para 3; Vero): 2.6
- EC50 (Para 3; Vero): 1 mg/L (≈ 3.26 µM)
- Virus Rating (Reo 3; HeLa): 2.7
- EC50 (Reo 3; HeLa): 8 mg/L (≈ 26 µM)
- Virus Rating (Reo 3; Vero): 1.8
- EC50 (Reo 3; Vero): 1 mg/L (≈ 3.26 µM)
- Virus Rating (VV; HeLa): 2.4
- EC50 (VV; HeLa): 2 mg/L (≈ 6.51 µM)
- type of antiviral activity (VV; Vaccinia, depending upon cell line): virucidal
- Virus Rating (VV; Vero): 2.1
- EC50 (VV; Vero): 3 mg/L (≈ 9.77 µM)
- antiviral activity in words (VSV; HeLa cells, Rhabdoviridae (VSV)): Excellent antiviral activity
- Virus Rating (VSV; HeLa): 2.1
- Virus Rating (VSV; Vero): 0.4
- EC50 (VSV; HeLa): 9 mg/L (≈ 29.3 µM)
- EC50 (VSV; Vero): 1000 mg/L (≈ 3260 µM)
- toxicity to cells (Vero cells): non-toxic
- toxicity to cells (Hela cells): non-toxic
- toxicity to cells (MRC-5 cells): non-toxic
- cytotoxicity in words (cell culture): low cytotoxicity
